According to US20250000858A1, “FGFR TYROSINE KINASE INHIBITORS FOR THE TREATMENT OF ADVANCED SOLID TUMORS” (JANSSEN PHARMACEUTICA NV, priority 2021, published 2025):

Test system: advanced solid tumors with FGFR mutations or fusions
Assay: Phase 2 RAGNAR study (NCT04083976): tumor response per RECIST v1.1 or RANO by IRC and investigator (ORR, DOR, DCR, CBR, PFS, OS, best overall response)
Assay type: in vivo, human
Details: for DOR of longest ongoing PR: + = censored, IA3; for Clinical Benefit Rate n(%) (95% CI) / Confirmed Objective Response Rate n(%) (95% CI) / Disease Control Rate n(%) (95% CI) / Median DOR (95% CI) / Median PFS (95% CI) / Median OS (95% CI): BPC; for Clinical Benefit Rate n(%) (95% CI) / Confirmed Objective Response Rate n(%) (95% CI) / Disease Control Rate n(%) (95% CI) / Median DOR (95% CI) / Median PFS (95% CI): IRC
Source text: Subjects ≥12 years of age with target FGFR mutations or any FGFR gene fusions were enrolled into the Broad Panel Cohort. […] A subgroup of subjects in the Broad Panel Cohort with a select panel of pre-specified FGFR markers were identified as the Core Panel Cohort (for analysis only). While the Broad Panel Cohort consists of target FGFR mutations and any fusions, the Core Panel Cohort consists of a select subset of FGFR mutations or fusions. Subjects with any other FGFR mutations that are not captured in the Broad Panel Cohort are included in the study as the Exploratory Cohort. A separate Cholangiocarcinoma Expansion Cohort enrolled subjects with target FGFR mutations or any FGFR gene fusion once the Broad Panel Cohort reached the cap of approximately 30 subjects for cholangiocarcinoma. […] Adolescent subjects enrolled in the Broad Panel Cohort (≥12 to <18 years) are considered part of the Broad Panel Cohort and the Pediatric Cohort.
(§1) Each dose was taken approximately at the same time each day, with or without food.
The Treated Population will consist of all subjects who receive at least 1 dose of study drug. The Treated Population is the primary population for efficacy and safety analyses. […] Adequate disease assessment is defined as having enough evidence to indicate that progression has or has not occurred.
Statistical Methods: For the Broad Panel Cohort, the primary endpoint was overall response rate (ORR) based on RECIST v1.1. or RANO as assessed by the IRC and was calculated with a 95% 2-sided exact confidence interval (CI). The primary endpoint was analyzed using data from the Treated Population (defined as all subjects who receive at least 1 dose of study drug) in the Broad Panel Cohort and the Core Panel Cohort. An error-spending function approach was used to split the significance level for the Broad Panel Cohort and the Core Panel Cohort.
as §1

[1] = CUP (Carcinoma of Unknown Primary), N=8
[2] = EDMTL (Endometrial Cancer), N=6
[3] = HNSCC (Squamous Cell Head and Neck Cancers), N=5
[4] = Others (tumor histologies with 1 subject treated), N=14
[5] = PANCR (Pancreatic Cancer), N=13
[6] = SALIV (Salivary Gland Cancer), N=5
[7] = nonsqNSCLC (Non-squamous NSCLC), N=7
[8] = BRST (breast cancer), N=7, efficacy analysis set, investigator assessment

COc1cc(OC)cc(N(CCNC(C)C)c2ccc3ncc(-c4cnn(C)c4)nc3c2)c1 [erdafitinib, N-(3,5-dimethoxy-phenyl)-N′-(1-methylethyl)-N-[3-(1-methyl-1H-pyrazol-4-yl)quinoxalin-6-yl]ethane-1,2-diamine]
DOR of longest ongoing PR (1 patient with endometrial cancer): ≥ 13.7 months
DOR of longest ongoing PR (1 patient with pancreatic cancer): ≥ 13.8 months
clinical benefit rate (CBR: CR+PR+SD>4 months) (69/124, efficacy analysis set): 55.6%
Objective Response Rate (BCC, N=1, efficacy analysis set, investigator assessment): 0 (NE, NE) %
Clinical Benefit Rate n(%) (95% CI) (BRST (Breast Cancer), N=14): 6 (42.9%)
Confirmed Objective Response Rate n(%) (95% CI) (BRST (Breast Cancer), N=14): 5 (35.7%)
Disease Control Rate n(%) (95% CI) (BRST (Breast Cancer), N=14): 9 (64.3%)
Median DOR (95% CI) (BRST (Breast Cancer), N=14): NE (NE, NE)
Median PFS (95% CI) (BRST (Breast Cancer), N=14): 4.17 (1.22, NE) months
Confirmed Objective Response Rate n(%) (95% CI) (CCA (Cholangiocarcinoma), N=31): 16 (51.6%)
Disease Control Rate n(%) (95% CI) (CCA (Cholangiocarcinoma), N=31): 30 (96.8%)
Median PFS (95% CI) (CCA (Cholangiocarcinoma), N=31): 8.25 (6.41, 9.72) months
Clinical Benefit Rate n(%) (95% CI) (CRC (Colorectal Cancer), N=6): 1 (16.7%)
Confirmed Objective Response Rate n(%) (95% CI) (CRC (Colorectal Cancer), N=6): 0 (NE, NE) %
Disease Control Rate n(%) (95% CI) (CRC (Colorectal Cancer), N=6): 2 (33.3%)
Median PFS (95% CI) (CRC (Colorectal Cancer), N=6): 1.15 (0.43, NE) months
Clinical Benefit Rate n(%) (95% CI) (CRVX (Cervical Cancer), N=4): 1 (25.0%)
Confirmed Objective Response Rate n(%) (95% CI) (CRVX (Cervical Cancer), N=4): 0 (NE, NE) %
Disease Control Rate n(%) (95% CI) (CRVX (Cervical Cancer), N=4): 3 (75.0%)
Median PFS (95% CI) (CRVX (Cervical Cancer), N=4): 3.52 (1.38, NE) months
Clinical Benefit Rate n(%) (95% CI) [1]: 5 (62.5%)
Confirmed Objective Response Rate n(%) (95% CI) [1]: 2 (25.0%)
Disease Control Rate n(%) (95% CI) [1]: 7 (87.5%)
Median DOR (95% CI) [1]: NE (2.66, NE)
Median PFS (95% CI) [1]: 4.78 (2.04, NE) months
Clinical Benefit Rate n(%) (95% CI) [2]: 3 (50.0%)
Confirmed Objective Response Rate n(%) (95% CI) [2]: 3 (50.0%)
Disease Control Rate n(%) (95% CI) [2]: 4 (66.7%)
Median PFS (95% CI) [2]: 4.11 (1.31, NE) months
Clinical Benefit Rate n(%) (95% CI) (ESOPH (Esophageal Cancer), N=6): 1 (16.7%)
Confirmed Objective Response Rate n(%) (95% CI) (ESOPH (Esophageal Cancer), N=6): 1 (16.7%)
Disease Control Rate n(%) (95% CI) (ESOPH (Esophageal Cancer), N=6): 2 (33.3%)
Median PFS (95% CI) (ESOPH (Esophageal Cancer), N=6): 1.31 (0.30, NE) months
Clinical Benefit Rate n(%) (95% CI) (GSTRC (Gastric Cancer), N=5): 0 (NE, NE) %
Confirmed Objective Response Rate n(%) (95% CI) (GSTRC (Gastric Cancer), N=5): 0 (NE, NE) %
Disease Control Rate n(%) (95% CI) (GSTRC (Gastric Cancer), N=5): 3 (60.0%)
Median PFS (95% CI) (GSTRC (Gastric Cancer), N=5): 2.30 (1.22, NE) months
Clinical Benefit Rate n(%) (95% CI) (HGG (High-grade Glioma), N=29): 10 (34.5%)
Confirmed Objective Response Rate n(%) (95% CI) (HGG (High-grade Glioma), N=29): 3 (10.3%)
Disease Control Rate n(%) (95% CI) (HGG (High-grade Glioma), N=29): 16 (55.2%)
Median DOR (95% CI) (HGG (High-grade Glioma), N=29): NE (NE, NE)
Median PFS (95% CI) (HGG (High-grade Glioma), N=29): 3.86 (2.96, 5.19) months
Clinical Benefit Rate n(%) (95% CI) [3]: 2 (40.0%)
Confirmed Objective Response Rate n(%) (95% CI) [3]: 2 (40.0%)
Disease Control Rate n(%) (95% CI) [3]: 4 (80.0%)
Median PFS (95% CI) [3]: 4.04 (0.39, NE) months
Clinical Benefit Rate n(%) (95% CI) (LGG (Low-grade Glioma), N=6): 3 (50.0%)
Confirmed Objective Response Rate n(%) (95% CI) (LGG (Low-grade Glioma), N=6): 2 (33.3%)
Disease Control Rate n(%) (95% CI) (LGG (Low-grade Glioma), N=6): 4 (66.7%)
Median DOR (95% CI) (LGG (Low-grade Glioma), N=6): NE (NE, NE)
Median PFS (95% CI) (LGG (Low-grade Glioma), N=6): NE (2.76, NE)
Clinical Benefit Rate n(%) (95% CI) (OVAR (Ovarian Cancer), N=4): 1 (25.0%)
Confirmed Objective Response Rate n(%) (95% CI) (OVAR (Ovarian Cancer), N=4): 1 (25.0%)
Disease Control Rate n(%) (95% CI) (OVAR (Ovarian Cancer), N=4): 2 (50.0%)
Median PFS (95% CI) (OVAR (Ovarian Cancer), N=4): 6.70 (NE, NE) months
Clinical Benefit Rate n(%) (95% CI) (Other, N=31): 18 (58.1%)
Confirmed Objective Response Rate n(%) (95% CI) (Other, N=31): 8 (25.8%)
Median PFS (95% CI) (Other, N=31): 5.52 (2.76, 8.61) months
Clinical Benefit Rate n(%) (95% CI) [4]: 7 (50.0%)
Confirmed Objective Response Rate n(%) (95% CI) [4]: 2 (14.3%)
Disease Control Rate n(%) (95% CI) [4]: 11 (78.6%)
Median DOR (95% CI) [4]: NE (NE, NE)
Median PFS (95% CI) [4]: 4.39 (1.41, NE) months
Clinical Benefit Rate n(%) (95% CI) [5]: 6 (46.2%)
Confirmed Objective Response Rate n(%) (95% CI) [5]: 5 (38.5%)
Disease Control Rate n(%) (95% CI) [5]: 12 (92.3%)
Median PFS (95% CI) [5]: 4.76 (3.02, NE) months
Clinical Benefit Rate n(%) (95% CI) (PCA (Prostate Cancer), N=2): 0 (NE, NE) %
Confirmed Objective Response Rate n(%) (95% CI) (PCA (Prostate Cancer), N=2): 0 (NE, NE) %
Disease Control Rate n(%) (95% CI) (PCA (Prostate Cancer), N=2): 0 (NE, NE) %
Median PFS (95% CI) (PCA (Prostate Cancer), N=2): 1.26 (1.18, NE) months
Clinical Benefit Rate n(%) (95% CI) [6]: 5 (100.0%)
Confirmed Objective Response Rate n(%) (95% CI) [6]: 4 (80.0%)
Disease Control Rate n(%) (95% CI) [6]: 5 (100.0%)
Median PFS (95% CI) [6]: NE (8.34, NE)
Clinical Benefit Rate n(%) (95% CI) (STS (Soft Tissue Sarcoma), N=2): 1 (50.0%)
Confirmed Objective Response Rate n(%) (95% CI) (STS (Soft Tissue Sarcoma), N=2): 0 (NE, NE) %
Disease Control Rate n(%) (95% CI) (STS (Soft Tissue Sarcoma), N=2): 1 (50.0%)
Median PFS (95% CI) (STS (Soft Tissue Sarcoma), N=2): NE (3.94, NE)
Clinical Benefit Rate n(%) (95% CI) (Total, N=178): 82 (46.1%)
Confirmed Objective Response Rate n(%) (95% CI) (Total, N=178): 52 (29.2%)
Disease Control Rate n(%) (95% CI) (Total, N=178): 129 (72.5%)
Median PFS (95% CI) (Total, N=178): 4.21 (4.04, 5.52) months
Clinical Benefit Rate n(%) (95% CI) [7]: 3 (42.9%)
Confirmed Objective Response Rate n(%) (95% CI) [7]: 3 (42.9%)
Disease Control Rate n(%) (95% CI) [7]: 4 (57.1%)
Median PFS (95% CI) [7]: 4.07 (1.38, NE) months
Clinical Benefit Rate n(%) (95% CI) (sqNSCLC (Squamous NSCLC), N=11): 3 (27.3%)
Confirmed Objective Response Rate n(%) (95% CI) (sqNSCLC (Squamous NSCLC), N=11): 3 (27.3%)
Disease Control Rate n(%) (95% CI) (sqNSCLC (Squamous NSCLC), N=11): 10 (90.9%)
Median PFS (95% CI) (sqNSCLC (Squamous NSCLC), N=11): 5.03 (2.37, NE) months
Median OS (95% CI) (BRST (Breast Cancer), N=14): 8.87 (4.86, NE) months
Median OS (95% CI) (CCA (Cholangiocarcinoma), N=31): 14.46 (12.09, NE) months
Median OS (95% CI) (CRC (Colorectal Cancer), N=6): 5.68 (1.22, NE) months
Median OS (95% CI) (CRVX (Cervical Cancer), N=4): 4.40 (3.48, NE) months
Median OS (95% CI) [1]: 11.99 (2.99, NE) months
Median OS (95% CI) [2]: NE (1.74, NE)
Median OS (95% CI) (ESOPH (Esophageal Cancer), N=6): 3.42 (1.28, NE) months
Median OS (95% CI) (GSTRC (Gastric Cancer), N=5): 3.29 (2.89, NE) months
Median OS (95% CI) (HGG (High-grade Glioma), N=29): 6.49 (3.75, 14.39) months
Median OS (95% CI) [3]: NE (0.39, NE)
Median OS (95% CI) (LGG (Low-grade Glioma), N=6): 10.94 (5.72, NE) months
Median OS (95% CI) (OVAR (Ovarian Cancer), N=4): NE (NE, NE)
Median OS (95% CI) (Other, N=31): NE (3.94, NE)
Median OS (95% CI) [4]: NE (3.29, NE)
Median OS (95% CI) [5]: 12.12 (7.26, NE) months
Median OS (95% CI) (PCA (Prostate Cancer), N=2): NE (3.48, NE)
Median OS (95% CI) [6]: NE (NE, NE)
Median OS (95% CI) (STS (Soft Tissue Sarcoma), N=2): NE (3.94, NE)
Median OS (95% CI) (Total, N=178): 10.94 (7.89, 14.26) months
Median OS (95% CI) [7]: NE (2.40, NE)
Median OS (95% CI) (sqNSCLC (Squamous NSCLC), N=11): 6.83 (2.37, NE) months
Median DOR [8]: 6.08 (NE, NE) months
Objective Response Rate [8]: 3 (42.9%) (9.9%, 81.6%)
